Measured values: patent EP4570800A1, “CRYSTAL FORM OF PYRIDINOPYRIMIDINONE COMPOUND, ACID SALT THEREOF, CRYSTAL FORM OF ACID SALT THEREOF, AND USE” (Wuhan Humanwell Innovative Drug Research and Development …, priority 2022, dated 2024)

Experiments:
[1] = Human liver microsome stability test; assay type: in vitro ADME; details: human liver microsomes
Experimental: The human liver microsome stability test was performed by incubating the compound and human liver microsomes in vitro. First, the compound to be tested was prepared into a 10 mM stock solution in DMSO solvent, and then the compound was diluted to 0.5 mM with acetonitrile. Human liver microsomes (Corning) were diluted with PBS into a microsome/buffer solution, and the solution was used to dilute 0.5 mM compound into a working solution, in which the concentration of the compound was 1.5 µM, and the concentration of human liver microsomes was 0.75 mg/mL. A deep-well plate was taken, 30 µL of the working solution was added per well, and then 15 µL of pre-heated 6 mM NADPH solution was added thereto to initiate a reaction, and the reaction was incubated at 37°C. At 0, 5, 15, 30, and 45 min of the incubation, 135 µL of acetonitrile was added to the corresponding wells to terminate the reaction. After the reaction was terminated with acetonitrile at the last time point of 45 min, the deep-well plate was vortexed for 10 min (600 rpm/min), and then centrifuged for 15 min. After centrifugation, the supernatant was collected, and added with purified water in a ratio of 1:1 to perform LC-MS/MS detection. A ratio of a peak area of compound to a peak area of internal standard at each time point was obtained, and the peak area ratios of the compound at 5, 15, 30, and 45 min were compared with the peak area ratio at 0 min to calculate the remaining percentage of the compound at each time point. T1/2 was calculated by using GraphPad 5 software.

[2] = Mouse pharmacokinetic test (oral gavage); assay type: in vivo; details: plasma, male ICR mice, oral administration by gavage, 10 mg/kg
Experimental: Male ICR mice (20 to 25 g) were used, and fasted overnight. Three mice were taken and orally administered by gavage (10 mg/kg). Blood was collected before the administration, and at 15 min, 30 min, 1 h, 2 h, 4 h, 8 h, and 24 h after the administration. 6,800 g of the blood samples were centrifuged at 2 to 8°C for 6 min, and plasma was collected and stored at -80°C. The plasma at each time point was taken and added with an acetonitrile solution containing internal standard in 3 to 5 times the amount, vortexed and mixed for 1 min, and centrifuged at 13,000 rpm/min at 4°C for 10 min. The supernatant was collected, added with water in 3 times the amount, and mixed. An appropriate amount of the mixture was taken for LC-MS/MS analysis. The main pharmacokinetic parameters were analyzed using WinNonlin 7.0 software with non-compartmental model.

## Cc1nc(N[C@H](C)c2cccc(S(F)(F)(F)(F)F)c2)c2cn(C3(CF)CC3)c(=O)cc2n1 [Compound of formula I, (R)-6-(1-(fluoromethyl)cyclopropyl)-2-methyl-4-((1-(3-(pentafluorosulfanyl)phenyl)ethyl)amino)pyrido[4,3-d]pyrimidin-7(6H)-one]
[1]
  half-life at 1 µM: 12.8 h
[1]; incubation for 30 min, 37°C
  Remaining percentage (%) of compound after incubation for 30 min: 98.7%
[2]
  AUC(0-t): 3080 ng·h/mL
  Cmax: 1440 ng/mL
  Tmax: 1 h
  half-life: 0.97 h
